Experimental data from patent US20260216239A1 (Arizona Board of Regents on Behalf of the University of …, priority 2020, published 2026).
Read-outs that look alike come from different tables or passages of the source.

How the values were obtained:
[1] = test system: acute kidney injury; conditions: up to 30 mg/kg of CORM-2; cited from earlier work
[2] = test system: Pseudonaja textilis venom; conditions: previously characterized by this laboratory; cited from earlier work
[3] = test system: human plasma; type: biochemical
Method: Given that the only compounds present with anions different from RuCl3 potentially available to displace Cl in the PBS used was KH2PO4 (1.5 mM) and Na2HPO4 (8.1 mM), a comparison of the effects of 1 and 10 μM RuCl3 (final concentration) dissolved in dH2O or PBS was performed in plasma as a 1% addition (v/v) with coagulation assessed via thrombelastography.
The volumes of subsequently described plasmatic and other additives summed to a final volume of 360 μL. Samples were composed of 320 μL of plasma; 16.4 μL of PBS, 20 μL of 200 mM CaCl2), and 3.6 μL of PBS, RuCl3, or venom solution mixture, which were pipetted into a disposable cup in a Thrombelastograph® hemostasis system (Model 5000, Haemonetics Inc., Braintree, MA, USA) at 37° C., and then rapidly mixed by moving the cup up against and then away from the plastic pin five times. The PBS, RuCl3, or venom solution mixtures was always the last constituent added prior to mixing and data collection. The following viscoelastic parameters described previously (see, Nielsen, V. G.; et al., Biometals 2016, 29, 913-919; Nielsen, V. G.; Losada, P. A. Basic Clin. Pharmacol. Toxicol. 2017, 120, 207-212; Nielsen, V. G.; Frank, N. J. Thromb. Thrombolysis 2019, 47, 533-539; Nielsen, V. G.; Bazzell, C. M. J. Thromb. Thrombolysis 2017, 43, 203-208; Nielsen, V. G.; Matika, R. W. Hum. Exp. Toxicol. 2017, 36, 727-733; Nielsen, V. G.; et al., Toxins 2018, 10, 322; Nielsen, V. G.; et al., Biometals 2018, 31, 51-59; Nielsen, V. G.; Frank, N. et al., Biometals 2018, 31, 951-959; Nielsen, V. G.; et al., Toxins 2019, 11, 94; Nielsen, V. G.; Frank, N. Hum Exp. Toxicol. 2019, 38, 216-226; Nielsen, V. G. J. Thromb. Thrombolysis 2019, 48, 256-262; Nielsen, V. G.; et al., Blood Coagul. Fibrinolysis 2019, 30, 379-384; Nielsen, V. G. J. Thromb. Thrombolysis 2019, 47, 73-79) were measured: time to maximum rate of thrombus generation (TMRTG): this is the time interval (minutes) observed prior to maximum speed of clot growth; maximum rate of thrombus generation (MRTG): this is the maximum velocity of clot growth observed (dynes/cm^2/s); and total thrombus generation (TTG, dynes/cm^2), the final viscoelastic resistance observed after clot formation. Data were collected until the clot strength reached its final plateau (maximum amplitude) that was stable for 3 min.
Thus, experiments wherein RuCl3 was dissolved in either dH2O or PBS were conducted with the final concentration of RuCl3 in plasma being 1 or 10 μM. Data were collected until maximum amplitude was observed.
Specific volumes of subsequently described plasma and chemical additives varied by condition but summated to 360 μl. Sample composition consisted of 320 μl of plasma; 16.4 μl of PBS, 20 μl of 200 mM CaCl2, and 3.6 μl of one of five subsequently described solutions, which were placed into a disposable cup in a computer-controlled Thrombelastograph® hemostasis system (Model 5000, Haemonetics Inc., Braintree, MA, USA) at 37° C., and then rapidly mixed by moving the cup up against and then away from the plastic pin five times before leaving the mixture between the cup and pin.

[4] = 10 vs 1 μM RuCl3 (final) dissolved in PBS
[5] = 10 vs 1 μM RuCl3 (final) dissolved in dH2O

SMILES: [C-]#[O+].[C-]#[O+].[C-]#[O+].[C-]#[O+].[C-]#[O+].[C-]#[O+].[Cl][Ru][Cl].[Cl][Ru][Cl] [CORM-2, tricarbonyldichlororuthenium(II) dimer]
- protection against acute kidney injury [1]: protected against injury
- tolerability [1]: well tolerated
- CORM-2/ iRM Inhibition [2]: Yes

SMILES: [Cl][Ru]([Cl])[Cl] [RuCl3, ruthenium(III) chloride]
- increase in MRTG values [3]: 37-61%
- maximum rate of thrombus generation (MRTG) ([3]; 1 μM RuCl3 dissolved in PBS vs control conditions, preliminary investigation): increased
- total thrombus generation (TTG) ([3]; 1 and 10 μM RuCl3 in dH2O or PBS, interaction of RuCl3 and fluid): decreased
- maximum rate of thrombus generation (MRTG) [3, 4]: increase
- time to maximum rate of thrombus generation (TMRTG) [3, 4]: significantly decrease
- maximum rate of thrombus generation (MRTG) [3, 5]: increase
- time to maximum rate of thrombus generation (TMRTG) [3, 5]: significant decrease
- plasmatic TMRTG or TTG values ([3]; RuCl3 1 μM final in water or PBS vs plasma without RuCl3): no significant differences
